Data on 13 compounds can be found in patent publication US8003659B2, “Macrocyclic serine protease inhibitors” (Indenix Pharmaceuticals, Inc., priority 2008, dated 2011).

The target of series [1] is T1, HCV NS3-NS4A protease (Hepatitis C virus genotype 1b, UniProt P26663).
T1 construct: made in house
The series is described as follows: HCV Protease Assay (SensoLyte 620 HCV Protease Assay kit). The format is biochemical. To be noted: 1.2 nM HCV NS3-NS4A protease, 60 min at room temperature, 5% DMSO. As to the method: General procedure: Measurement of the inhibitory effect of compounds on HCV protease activity was performed with the SensoLyte™ 620 HCV Protease Assay kit from AnaSpec, Inc. (San Jose, Calif.) under conditions described by the supplier using 1.2 nM HCV NS3-NS4A protease, which was obtained according to Taremi et al. (Protein Science, 1998, 7, 2143-2149). The compounds were tested at a variety of concentrations in assay buffer containing a final DMSO concentration of 5%. Reactions were allowed to proceed for 60 min at room temperature and fluorescence measurements were recorded with a Tecan Infinity Spectrofluorimeter. The IC50 values were determined from the percent inhibition versus concentration data using a sigmoidal non-linear regression analysis based on four parameters with Tecan Magellan software.

For series [2], the system named is Huh-7 cells containing HCV Con1 subgenomic replicon (GS4.1 cells). Description: HCV Replicon Assay (NS4A ELISA). The format is cell-based. To be noted: Hepatitis C virus, Huh-7, 72 hr, NS4A protein by ELISA. As to the method:
General procedure: Huh-7 cells containing HCV Con1 subgenomic replicon (GS4.1 cells) were grown in Dulbecco's Modified Eagle Medium (DMEM) supplemented with 10% fetal bovine serum (FBS), 2 mM L-glutamine, 110 mg/L sodium pyruvate, 1× non-essential amino acids, 100 U/mL penicillin-streptomycin, and 0.5 mg/mL G418 (Invitrogen). For dose-response testing, the cells were seeded in 96-well plates at 7.5×10^3 cells/well in a volume of 50 μL, and incubated at 37° C./5% CO2. Three hours after plating, 50 μL of ten 2-fold serial dilutions of compounds (highest concentration, 75 μM) were added, and cell cultures were incubated at 37° C./5% CO2 in the presence of 0.5% DMSO. Alternatively, compounds were tested at a single concentration of 15 μM. In all cases, Huh-7 cells lacking the HCV replicon served as negative control. The cells were incubated in the presence of compounds for 72 hr after which they were monitored for expression of the NS4A protein by enzyme-linked immunosorbent assay (ELISA). For this, the plates were then fixed for 1 min with acetone/methanol (1:1, v/v), washed twice with phosphate-buffered saline (PBS), 0.1% Tween 20, blocked for 1 hr at room temperature with TNE buffer containing 10% FBS and then incubated for 2 hr at 37° C. with the anti-NS4A mouse monoclonal antibody A-236 (ViroGen) diluted in the same buffer. After washing three times with PBS, 0.1% Tween 20, the cells were incubated 1 hr at 37° C. with anti-mouse immunoglobulin G-peroxidase conjugate in TNE, 10% FBS. After washing as described above, the reaction was developed with O-phenylenediamine (Zymed). The reaction was stopped after 30 min with 2 NH2SO4, and absorbance was read at 492 nm using Sunrise Tecan spectrophotometer. EC50 values were determined from the % inhibition versus concentration data using a sigmoidal non-linear regression analysis based on four parameters with Tecan Magellan software. When screening at a single concentration, the results were expressed as % inhibition at 15 μM.
A general note: A replicon is a self-replicating genome or part of one, used to study replication in cells.

Series [3] in a line: Cytotoxicity evaluation (Cell Titer 96 AQueous One Solution Cell Proliferation Assay). Format: cell-based. To be noted: human; GS4.1 cells, cellular viability. As to the method: For cytotoxicity evaluation, GS4.1 cells were treated with compounds as described above and cellular viability was monitored using the Cell Titer 96 AQueous One Solution Cell Proliferation Assay (Promega). CC50 values were determined from the % cytotoxicity versus concentration data with Tecan Magellan software as described above.

T1 sequence (P26663 1027-1208): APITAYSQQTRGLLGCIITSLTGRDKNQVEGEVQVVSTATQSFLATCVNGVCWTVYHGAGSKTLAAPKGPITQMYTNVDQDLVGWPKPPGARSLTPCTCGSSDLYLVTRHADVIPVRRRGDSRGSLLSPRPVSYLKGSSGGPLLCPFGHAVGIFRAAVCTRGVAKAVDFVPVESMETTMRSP

As a reminder, the IC50 is the concentration that inhibits the measured activity by half. A high value points to weaker potency. A word on the EC50: it is the concentration giving half of the maximal effect. Lower therefore signals an effect from little substance. The CC50 is the concentration that lowers cell viability or growth by half. Read a high CC50 as lower toxicity to the cells. In turn, `COc1ccc2c(O[C@H]3C[C@H]4C(=O)N(C)CCCC/C=C\[C@@H]5C[C@@]5(C(=O)NS(=O)(=O)C5CC5)NC(=O)N4C3)cc(-c3nc(C4CC4)cs3)nc2c1Cl` [AC1, (Z)-(4R,6S,15S,17S)-[17-[8-chloro-7-methoxy-2-(4-cyclopropylthiazol-2-yl)quinolin-4-yloxy]-13-N-methyl-2,14-dioxo-1,3,13-triazatricyclo-[13.3.0.0]octadec-7-en-4-yl]carbonyl-(cyclopropyl)sulfonamide] displayed an IC50 in series [1] of under 1000 nM. Also, in series [2], the 50% effective concentration (EC50) is under 1000 nM. The compound further came in with a CC50 in series [3] of 10000 to 75000 nM.

The compound `COc1ccc2c(O[C@H]3C[C@H]4C(=O)N(C)CCCC/C=C\[C@@H]5C[C@@]5(C(=O)NS(=O)(=O)C5CC5)NC(=O)N4C3)cc(-c3nc(C4CCC4)cs3)nc2c1Cl` [AC2, (Z)-(4R,6S,15S,17S)-[17-[8-chloro-7-methoxy-2-(4-cyclobutylthiazol-2-yl)quinolin-4-yloxy]-13-N-methyl-2,14-dioxo-1,3,13-triazatricyclo-[13.3.0.0]octadec-7-en-4-yl]carbonyl-(cyclopropyl)sulfonamide] displayed a 50% inhibitory concentration (IC50) in series [1] of under 1000 nM. The EC50 in series [2] is under 1000 nM. The compound also returned a CC50 in series [3] of 10000 to 75000 nM.

With `COc1ccc2c(O[C@H]3C[C@H]4C(=O)N(C)CCCC/C=C\[C@@H]5C[C@@]5(C(=O)NS(=O)(=O)C5(C)CC5)NC(=O)N4C3)cc(-c3nc(C4CCC4)cs3)nc2c1Cl` [AC3, (Z)-(4R,6S,15S,17S)-[17-[8-chloro-7-methoxy-2-(4-cyclobutylthiazol-2-yl)quinolin-4-yloxy]-13-N-methyl-2,14-dioxo-1,3,13-triazatricyclo-[13.3.0.0]octadec-7-en-4-yl]carbonyl-(1-methylcyclopropyl)sulfonamide], in series [1], the IC50 was under 1000 nM. This compound also displayed an EC50 in series [2] of under 1000 nM. For the same compound, in series [3], the CC50 was over 75000 nM.

`C=Cc1csc(-c2cc(O[C@H]3C[C@H]4C(=O)N(C)CCCC/C=C\[C@@H]5C[C@@]5(C(=O)NS(=O)(=O)C5(C)CC5)NC(=O)N4C3)c3ccc(OC)c(Cl)c3n2)n1` [AH, (Z)-(4R,6S,15S,17S)-[17-[8-chloro-7-methoxy-2-(4-vinylthiazol-2-yl)quinolin-4-yloxy]-13-N-methyl-2,14-dioxo-1,3,13-triazatricyclo-[13.3.0.0]octadec-7-en-4-yl]carbonyl(1-methyl-cyclopropyl)sulfonamide]: in series [1], the IC50 was under 1000 nM. This compound also registered an EC50 in series [2] of under 1000 nM. The same compound showed a CC50 in series [3] of 10000 to 75000 nM.

As for `COc1ccc2c(O[C@H]3C[C@H]4C(=O)N(C)CCCC/C=C\[C@@H]5C[C@@]5(C(=O)NS(=O)(=O)C5CC5)NC(=O)N4C3)cc(-c3nc(C)cs3)nc2c1Cl` [AN, (Z)-(4R,6S,15S,17S)-[17-[8-chloro-7-methoxy-2-(4-methylthiazol-4-yl)quinolin-4-yloxy]-13-N-methyl-2,14-dioxo-1,3,13-triazatricyclo-[13.3.0.0]octadec-7-en-4-yl]carbonyl-(cyclopropyl)sulfonamide], the 50% inhibitory concentration (IC50) in series [1] was under 1000 nM. In addition, the EC50 in series [2] is under 1000 nM. Moreover, the CC50 in series [3] lay within 10000 to 75000 nM.

On to `COc1ccc2c(O[C@H]3C[C@H]4C(=O)N(C)CCCC/C=C\[C@@H]5C[C@@]5(C(=O)NS(=O)(=O)C5(C)CC5)NC(=O)N4C3)cc(-c3nc(C(C)C)cs3)nc2c1` [Compound 56a, (Z)-(4R,6S,15S,17S)-[17-[7-methoxy-2-(4-isopropylthiazol-2-yl)quinolin-4-yloxy]-13-N-methyl-2,14-dioxo-1,3,13-triazatricyclo-[13.3.0.0]octadec-7-en-4-yl]carbonyl(1-methyl-cyclopropyl)sulfonamide], for which the IC50 in series [1] is under 1000 nM. In series [2], this compound came in with an EC50 of under 1000 nM. This compound gave a CC50 in series [3] of over 75000 nM.

In series [1], `COc1ccc2c(O[C@H]3C[C@H]4C(=O)N(C)CCCC/C=C\[C@@H]5C[C@@]5(C(=O)NS(=O)(=O)C5(C)CC5)NC(=O)N4C3)cc(-c3nc(C(C)C)cs3)nc2c1F` [Compound 56c, (Z)-(4R,6S,15S,17S)-[17-[8-fluoro-7-methoxy-2-(4-isopropylthiazol-2-yl)quinolin-4-yloxy]-13-N-methyl-2,14-dioxo-1,3,13-triazatricyclo[13.3.0.0]octadec-7-en-4-yl]carbonyl(1-methyl-cyclopropyl)sulfonamide] gave an IC50 of under 1000 nM. Besides, the half-maximal effective concentration (EC50) in series [2] is under 1000 nM. The CC50 in series [3] is over 75000 nM.

In series [1], `COc1cc(OC)c2c(O[C@H]3C[C@H]4C(=O)N(C)CCCC/C=C\[C@@H]5C[C@@]5(C(=O)NS(=O)(=O)C5(C)CC5)NC(=O)N4C3)cc(-c3nc(C(C)C)cs3)nc2c1` [Compound 56e, (Z)-(4R,6S,15S,17S)-[17-[5,7-dimethoxy-2-(4-isopropylthiazol-2-yl)quinolin-4-yloxy]-13-N-methyl-2,14-dioxo-1,3,13-triazatricyclo[13.3.0.0]octadec-7-en-4-yl]carbonyl(1-methyl-cyclopropyl)sulfonamide] came in with an IC50 of under 1000 nM. For the same compound, the EC50 in series [2] fell in the range of 1000 to 10000 nM. The compound further gave a CC50 in series [3] of over 75000 nM.

In turn, `COc1cc(C)c2nc(-c3nc(C(C)C)cs3)cc(O[C@H]3C[C@H]4C(=O)N(C)CCCC/C=C\[C@@H]5C[C@@]5(C(=O)NS(=O)(=O)C5(C)CC5)NC(=O)N4C3)c2c1` [Compound 56f, (Z)-(4R,6S,15S,17S)-[17-[6-methoxy-8-methyl-2-(4-isopropylthiazol-2-yl)quinolin-4-yloxy]-13-N-methyl-2,14-dioxo-1,3,13-triazatricyclo[13.3.0.0]octadec-7-en-4-yl]carbonyl(1-methyl-cyclopropyl)sulfonamide] returned an IC50 in series [1] of under 1000 nM. This compound showed an EC50 in series [2] of under 1000 nM. The compound also returned a CC50 in series [3] of over 75000 nM.

In series [1], `COc1cc2c(O[C@H]3C[C@H]4C(=O)N(C)CCCC/C=C\[C@@H]5C[C@@]5(C(=O)NS(=O)(=O)C5(C)CC5)NC(=O)N4C3)cc(-c3nc(C(C)C)cs3)nc2cc1Cl` [Compound 56g, (Z)-(4R,6S,15S,17S)-[17-[7-chloro-6-methoxy-2-(4-isopropylthiazol-2-yl)quinolin-4-yloxy]-13-N-methyl-2,14-dioxo-1,3,13-triazatricyclo[13.3.0.0]octadec-7-en-4-yl]carbonyl(1-methyl-cyclopropyl)sulfonamide] displayed an IC50 of under 1000 nM. Besides, the EC50 in series [2] was under 1000 nM. This compound gave a CC50 in series [3] of over 75000 nM.

The compound `COc1ccc2c(O[C@H]3C[C@H]4C(=O)N(C)CCCC/C=C\[C@@H]5C[C@@]5(C(=O)NS(=O)(=O)C5(C)CC5)NC(=O)N4C3)cc(-c3nc(C(C)C)cs3)nc2c1Br` [Compound 56h, (Z)-(4R,6S,15S,17S)-[17-[8-bromo-7-methoxy-2-(4-isopropylthiazol-2-yl)quinolin-4-yloxy]-13-N-methyl-2,14-dioxo-1,3,13-triazatricyclo[13.3.0.0]octadec-7-en-4-yl]carbonyl(1-methyl-cyclopropyl)sulfonamide] showed an IC50 in series [1] of under 1000 nM. In series [2], the EC50 is under 1000 nM. This compound showed a CC50 in series [3] of over 75000 nM.

The compound `COc1ccc2c(O[C@H]3C[C@H]4C(=O)N(C)CCCC/C=C\[C@@H]5C[C@@]5(C(=O)NS(=O)(=O)C5CC5)NC(=O)N4C3)cc(-c3nc(C(C)C)cs3)nc2c1C` [Compound 62b, (Z)-(4R,6S,15S,17S)-[17-[7-methoxy-8-methyl-2-(4-isopropylthiazol-2-yl)quinolin-4-yloxy]-13-N-methyl-2,14-dioxo-1,3,13-triazatricyclo[13.3.0.0]octadec-7-en-4-yl]carbonyl(cyclopropyl)sulfonamide] showed an IC50 in series [1] of under 1000 nM. In series [2], this compound yielded an EC50 of under 1000 nM. Moreover, the CC50 in series [3] is over 75000 nM.

The compound `COc1cc(C)c2nc(-c3nc(C(C)C)cs3)cc(O[C@H]3C[C@H]4C(=O)N(C)CCCC/C=C\[C@@H]5C[C@@]5(C(=O)NS(=O)(=O)C5CC5)NC(=O)N4C3)c2c1` [Compound 62f, (Z)-(4R,6S,15S,17S)-[17-[6-methoxy-8-methyl-2-(4-isopropylthiazol-2-yl)quinolin-4-yloxy]-13-N-methyl-2,14-dioxo-1,3,13-triazatricyclo[13.3.0.0]octadec-7-en-4-yl]carbonyl(cyclopropyl)sulfonamide] yielded an IC50 in series [1] of under 1000 nM. The same compound yielded a concentration for a half-maximal effect (EC50) in series [2] of under 1000 nM. The CC50 in series [3] is over 75000 nM.
